Source: ChEMBL document CHEMBL5614440, “Development of Novel Indole-Based Covalent Inhibitors of TEAD as Potential Antiliver Cancer Agents” (J Med Chem, 2024)
pIC50: −log10 of the molar value.

Legend:
HEK293T = test: Inhibition of TEAD (unknown origin) expressed in HEK293T cells transfected with 8xGTIIC-luciferase at 10 uM by dual luciferase reporter assay relative to control; format: cell-based; settings: Homo sapiens
Huh-7 [1] = test: Antiproliferative activity against human Huh-7 cells at 10 uM incubated for 3 days by CCK8 assay; format: functional; settings: time 3 day
Huh-7 [2] = test: Antiproliferative activity against human Huh-7 cells incubated for 3 days by CCK8 assay; format: functional, cell-based; settings: Huh-7, 72 h
[3] = Inhibition of TEAD transcription in human Huh-7 cells transfected with 8xGTIIC-luciferase by dual luciferase reporter assay; format: cell-based
Huh-7 [4] = test: Inhibition of TEAD transcription in human Huh-7 cells transfected with 8xGTIIC-luciferase assessed as downregulation of CTGF mRNA expression incubated for 24 hrs by RT-PCR analysis; format: cell-based; settings: dose 1.25-10 µM
Huh-7 [5] = test: Inhibition of TEAD transcription in human Huh-7 cells transfected with 8xGTIIC-luciferase assessed as downregulation of CTGF protein expression by Western blotting analysis; format: cell-based; settings: dose 1.25-15 µM
[6] = Antiproliferative activity against mouse AML12 cells at 10 uM incubated for 3 days by CCK8 assay; format: toxicity, cell-based; settings: time 3 day

Row | pIC50 (Huh-7 [2]) | pIC50 [3] | Structure (SMILES) | inhibition (HEK293T) [%] | Activity (Huh-7 [1]) [%] | inhibition (Huh-7 [4]) | inhibition (Huh-7 [5]) | inhibition at 72 h, 10 µM [6] [%]
1 |  |  | N#C/C(=C\c1c[nH]c2cc(Cl)c(OCc3cccc4ccccc34)cc12)C(N)=O | 51.3 | 70 |  |  | 
2 | 5.64 | 6.06 | O=C(CCl)c1c[nH]c2cc(Cl)c(OCc3ccc4ccccc4c3)cc12 | 95.6 |  | Dose-Dependent Effect | Dose-Dependent Effect | 
3 | 5.28 |  | N#C/C(=C\c1c[nH]c2cc(Cl)c(OCc3cccc(C(F)(F)F)c3)cc12)C(N)=O | 59.7 |  |  |  | 
4 | 5.57 |  | O=C(CCl)c1c[nH]c2cc(Cl)c(OCc3ccccc3)cc12 | 74.6 |  |  |  | 
5 | 5.62 |  | COc1cc2[nH]cc(C(=O)CCl)c2cc1OCc1ccc2ccccc2c1 | 93.9 |  |  |  | 
6 | 4.49 | 5.30 | Clc1cc2[nH]ccc2cc1OCc1ccccc1 | 68.3 |  |  |  | 20.3
7 | 5.70 |  | C=C(CN(C)C)C(=O)NCc1c[nH]c2cc(Cl)c(OCc3ccccc3)cc12 | 71.8 |  |  |  | 
